Activity data for three compounds are collected here from ChEMBL document CHEMBL1159326, “Three new homoisoflavanone glycosides from the bulbs of Ornithogalum caudatum” (J Nat Prod, 2002).

The structures appear in SMILES notation. Activity calls are given as the source filed them. No cut-off for these calls is given here.

One assay concerns A549. Put plainly: Antitumor activity in human A549 cells. In kind it is functional, cell-based.
In a further assay the test system is P388. Nature of the assay: Antitumor activity in mouse P388 cells. It is filed as functional, cell-based.

Consider `COc1ccc(C[C@]2(O)COc3cc(OC)cc(O[C@@H]4O[C@H](CO[C@@H]5O[C@@H](C)[C@H](O)[C@@H](O)[C@H]5O)[C@@H](O)[C@H](O)[C@H]4O)c3C2=O)cc1`, for which the result in the assay on A549 and in the assay on P388 was inactive.
Take `COc1ccc(C[C@]2(O)COc3cc(OC)cc(O[C@@H]4O[C@H](CO)[C@@H](O)[C@H](O)[C@H]4O[C@@H]4O[C@@H](C)[C@H](O)[C@@H](O)[C@H]4O)c3C2=O)cc1`: the outcome in the assay with A549 and in the assay on P388 was inactive.
As to `COc1ccc(C[C@]2(O)COc3cc(OC)cc(O[C@@H]4O[C@H](CO)[C@@H](O)[C@H](O)[C@H]4O)c3C2=O)cc1`, the outcome in the assay on A549 and in the assay on P388 was inactive.
